The values that follow come from US9296760B2, “Antibacterial compounds” (JANSSEN SCIENCES IRELAND UC, priority 2012, dated 2016).

In one data set the test system is Human HelaM cells. The data set can be described thus: Cytotoxicity MTT assay. Type of data set: cell-based. The settings on record: 72 hours. The method, then: (§1) Cytotoxicity of the compounds was evaluated using the MTT assay. Human HelaM cells grown in 96-well plates were exposed to serial dilutions of the tested compounds (final volume of 0.2 ml) and incubated for 72 hours at 37° C. and 5% CO2 Inhibitors are typically varied over the range of 25 to 0.8 μM. The final DMSO concentration in the assay is 0.5%. MTT (3-(4,5-Dimethylthiazol-2-yl)-2,5-diphenyltetrazolium bromide, a tetrazole) was added and reduced to purple formazan only in living cells. Solubilization of the formazan crystals was achieved by adding 100 μl 2-propanol. Cell viability was determined by measuring the absorbance of the reduced formazan, giving a purple color, at 540 nm and 690 nm. The absorbance measured at 690 nm was automatically subtracted from the absorbance at 540 nm, to eliminate the effects of non-specific absorption. The percent cytotoxicity achieved by the compounds was calculated according to standard methods. Cytotoxicity is reported as CC50, the concentration that causes a 50% reduction in cell viability.
(§2) The results are depicted in the table(s) below (HELAM).
On the technique in general: Formazan colour is commonly taken as a measure of viable cells.

The next data set deals with S. aureus. The data set is described as follows: Antibacterial susceptibility testing, IC90 determination with 10% human serum. Type of data set: cell-based, Staphylococcus aureus. The following applies: S. aureus with human serum at final concentration of 10%; for IC90: Staphylococcus aureus, read-out: STA + 10% HS (361.169) IC90. The protocol: (§3) Antibacterial Susceptibility Testing: IC90 Determination MIC assays were performed by the broth microdilution method in a 96-well format (flat-bottom microtitre plates) with a final volume of 0.1 ml Mueller Hinton broth containing two-fold serial dilutions of compounds and inoculated with 5×10^5 CFU/ml of bacteria (standard inoculum size according to CLSI guidelines). Inhibitors are typically varied over the range of 63 to 0.49 μM. The final DMSO concentration in the assay was 1.25% (maximum tolerable DMSO concentration=6%). In the assays where the effect of human serum on the activity of the compounds against S. aureus was tested, human serum was added at a final concentration of 10%. The plates were incubated at 35° C. for 16-20 hours. At the end of incubation the bacterial growth was quantified fluorometrically. For this, resazurin was added to all wells and the plates were re-incubated. The incubation time is dependent on the type of bacteria. A change in color from blue to pink indicated the growth of bacteria. The fluorescence was read in computer-controlled fluorometer (Fluoroskan Ascent FL, Labsystems) at an excitation wavelength 540 nm and an emission wavelength of 590 nm. The % growth inhibition achieved by the compounds was calculated according to standard methods. The IC90 (expressed in μg/ml) was defined as the 90% inhibitory concentration for bacterial growth. A panel of reference compounds were simultaneously tested for QC approval. The results are depicted in the table(s) below (STA+10% HS).

In data set [1] the target is T1, S. aureus ATCC 29213 FabI (Staphylococcus aureus, UniProt Q6GI75).
T1 sequence (Q6GI75 1-256): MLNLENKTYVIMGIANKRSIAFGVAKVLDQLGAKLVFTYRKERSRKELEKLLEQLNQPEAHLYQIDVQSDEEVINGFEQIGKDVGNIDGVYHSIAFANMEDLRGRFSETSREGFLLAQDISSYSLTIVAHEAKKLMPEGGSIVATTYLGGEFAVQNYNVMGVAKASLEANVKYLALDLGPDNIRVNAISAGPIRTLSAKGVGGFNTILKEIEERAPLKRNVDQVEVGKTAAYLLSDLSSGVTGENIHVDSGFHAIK
The data set is described as follows: Staphylococcus aureus FabI enzyme inhibition assay. Type of data set: biochemical. The following applies: NADH consumption, 30 minutes, read-out: FabI (300.235) IC50 (converted). The protocol:
Y.1 FabI Enzyme Inhibition: Staphylococcus aureus FabI Enzyme Inhibition Assay
FabI enzyme inhibition assays were carried out in half-area, 384-well microtitre plates. […] The reaction mixtures were incubated for 30 minutes at room temperature and the reaction was stopped by adding 200 mM Tris buffer (pH 9.0) to create a pH-shift. The consumption of NADH was monitored by measuring the change in absorbance at […]. By comparing sample readings to those of negative (absence of compound) and positive (absence of enzyme) controls, the percent inhibition of enzymatic activity of the compounds was determined A best-fit curve is fitted by a minimum of squares method. From this an IC50-value (expressed in μg/ml), resulting in 50% inhibition of enzymatic activity, was obtained.

The test system of data set [2] is Staphylococcus aureus ATCC 29213. The data set is described as follows: Antibacterial susceptibility testing, IC90 determination (broth microdilution, resazurin). It is filed as cell-based. The following applies: 90% inhibitory concentration for bacterial growth; for IC90: Staphylococcus aureus, ATCC29213, S. aureus ATCC 29213, read-out: STA (361.159) IC90; for STA (361.159) IC90: S. aureus ATCC 29213. The protocol: Y.2 In Vitro Method for Testing Compounds for Antibacterial Activity Against Various Bacterial Strains
Preparation of Bacterial Suspensions for Susceptibility Testing
The following bacteria were used: Staphylococcus aureus ATCC 29213, methicillin-resistant Staphylococcus aureus (MRSA) ATCC 700788 and Escherichia coli ATCC 35218. The bacteria used in this study were grown overnight in flasks containing 100 ml Mueller-Hinton broth (Difco cat. nr. 0757-17) in sterile de-ionized water, with shaking, at 37° C. Stocks were store at −70° C. until use.
Bacteria were incubated on a tryptic soy agar plate containing 5% sheep blood (Becton Dickinson cat. nr. 254053) for 18-24 hours at 35° C. in aerobic conditions (first passage). For the second passage, fresh Mueller-Hinton broth is inoculated with 5-10 colonies and grown overnight at 35° C. until turbidity (reaching log-phase) in aerobic conditions is reached. The bacterial suspension is then adjusted to 0.5 McFarland density and further diluted 1:100 in Mueller Hinton broth medium. This is used as inoculum.
The result(s) are depicted the table below (for STA ATCC 29213).
Antibacterial Susceptibility Testing: IC90 Determination
as §3, with “MIC” for “Antibacterial Susceptibility Testing: IC90 Determination MIC”, “approval.” for “approval. The results are depicted in the table(s) below (STA+10% HS).”

The next data set can be described thus: Cytotoxicity MTT assay. The following applies: human, HelaM cells, read-out: HELAM (222.125) CC50. Type of data set: cell-based, Human. The protocol:
as §1, §2

Converted amounts (≈) assume the structure as drawn. Where only a bound is given, the exact number is not on record here.

One may read the IC90 as the concentration needed for an effect of 90%. As usually defined, the IC50 is the concentration needed to halve the response being measured. The term melting point denotes the temperature, or range, at which the solid turns liquid. `CN1CC(=O)Nc2ncc(/C=C/C(=O)N3CCC=C(c4ccccc4)CC3)cc2C1` [compound 38] displayed a melting point of 198.79 °C. In addition, the “HELAM (222.125) CC50” value with Human HelaM cells was more than 10.11 µg/mL. In addition, the IC90 with S. aureus was found to be 0.46 µg/mL. Further, the IC50 in data set [1] is 820 nM. Moreover, the IC90 in data set [2] is 0.5 µg/mL (≈ 1.24 µM).
For `CN1CC(=O)Nc2ncc(/C=C/C(=O)N3CCC=C(c4ccccc4)CC3)cc2C1` [compound 40], the “HELAM (222.125) CC50” value in the data set on Human HelaM cells was 24.25 µg/mL. Further, in the data set with S. aureus, the “STA + 10% HS (361.169) IC90” value is 0.60 µg/mL. For the same compound, the IC50 in data set [1] was 721 nM. Further, the “STA (361.159) IC90” value in data set [2] worked out at 0.53 µg/mL.
For `O=C1CNCc2cc(/C=C/C(=O)N3CCC=C(c4ccccc4)CC3)cnc2N1` [compound 36], in that order: more than 19.47 µg/mL, 0.45 µg/mL, 747 nM and 0.46 µg/mL.
Usually CC50 stands for the concentration at which the toxic effect on the cells reaches its halfway point. `O=C(Nc1ccc(/C=C/C(=O)N2CCC=C(c3ccccc3)CC2)cn1)c1ccncc1` [compound 13] registered a melting point of 98 °C. Further, the CC50 at 72 h in “Cytotoxicity MTT assay” turned out to be 4.29 µg/mL (≈ 10.1 µM). In addition, in the data set with S. aureus, the IC90 was determined as 3.08 µg/mL. Also, the IC50 in data set [1] was 1250 nM. The IC90 in data set [2] worked out at 1.41 µg/mL (≈ 3.32 µM).
For `O=C1Nc2ncc(/C=C/C(=O)N3CCC=C(c4ccccc4)CC3)cc2CN2CCOCC12` (stereo not drawn) [compound 46], in that order: 227.76 °C, more than 11.2 µg/mL, 0.53 µg/mL, 562 nM and less than 0.22 µg/mL.
For `COc1ccc(CN2CC(=O)Nc3ncc(/C=C/C(=O)N4CCC=C(c5ccccc5)CC4)cc3C2)cc1` [compound 44], in that order: 198 °C, more than 12.8 µg/mL, 3.64 µg/mL, approximately 2810 nM and 4.8 µg/mL (≈ 9.44 µM).
`Nc1ccc(/C=C/C(=O)N2CC=C(c3ccccc3)CCC2)cn1` [compound 21] came in with a melting point of 184 °C. Further, in “Cytotoxicity MTT assay”, the CC50 at 72 h turned out to be 4.78 µg/mL (≈ 15 µM). Moreover, the IC90 in the data set with S. aureus turned out to be 12.9 µg/mL. In data set [1], the IC50 was 3880 nM. Further, in data set [2], the IC90 was 6.75 µg/mL (≈ 21.1 µM).
For `O=C(Nc1ccc(/C=C/C(=O)N2CCC=C(c3ccccc3)CC2)cn1)C1CCCC1` [compound 18], in that order: 141 °C, 2.62 µg/mL (≈ 6.31 µM), more than 26.2 µg/mL, 2050 nM and 6.29 µg/mL (≈ 15.1 µM).
`COc1ccc(F)cc1C1=CCCN(C(=O)/C=C/c2ccc(NC(=O)c3cncc(C)c3)nc2)CC1` [compound 5]: the melting point came to 120 °C. For the same compound, the CC50 at 72 h in the data set “Cytotoxicity MTT assay” turned out to be 7.8 µg/mL (≈ 16 µM). For the same compound, the IC90 in the data set on S. aureus came to 2.83 µg/mL. For the same compound, the IC50 in data set [1] was 1790 nM. Moreover, the concentration for an effect of 90% (IC90) in data set [2] stood at 0.66 µg/mL (≈ 1.36 µM).
For `O=C(Nc1ccc(/C=C/C(=O)N2CCC=C(c3ccccc3)CC2)cn1)c1c[nH]cn1` [compound 11], in that order: 120 °C, more than 10.4 µg/mL, 3.17 µg/mL, 1620 nM and 1.26 µg/mL (≈ 3.05 µM).
For `COc1ccc(F)cc1C1=CCCN(C(=O)/C=C/c2cnc3c(c2)COC(=O)N3)CC1` [compound 35], in that order: 218.22 °C, 6.56 µg/mL (≈ 15.5 µM), 0.54 µg/mL, approximately 1020 nM and 0.38 µg/mL (≈ 0.897 µM).
For `CN1CC(=O)Nc2ncc(/C=C/C(=O)N3CC=C(c4cccs4)CCC3)cc2C1` [compound 43], in that order: 212 to 213 °C, more than 10.3 µg/mL, 1.32 µg/mL, 2620 nM and 1.13 µg/mL (≈ 2.77 µM).
The compound `O=C(Nc1ccc(/C=C/C(=O)N2CCC=C(c3ccccc3)CC2)cn1)c1cccnc1` [compound 1] yielded a melting point of 186 °C. For the same compound, in the data set “Cytotoxicity MTT assay”, the CC50 at 72 h was 0.43 µg/mL (≈ 1.01 µM). Besides, the IC90 with S. aureus was determined as 0.84 µg/mL. For the same compound, the IC50 in data set [1] is 730 nM. Also, the IC90 in data set [2] was found to be 0.4 µg/mL (≈ 0.942 µM).
